From the NIST ThermoML archive (doi:10.1021/je800894y)

Conditions: Liquid; for viscosity: Vibrating wire viscometry; for mass density: vibrating-wire apparatus

CC(C)CCCC(C)CCCC(C)CCCCC(C)CCCC(C)CCCC(C)C (centres undefined) [2,6,10,15,19,23-hexamethyltetracosane]
Conditions | mass density [kg/m3] | viscosity [mPa·s]
303.18 K, 1070 kPa | 802 | 22
303.18 K, 5300 kPa | 803.5 | 24.2
303.18 K, 5740 kPa | 804.4 | 24.4
303.18 K, 15580 kPa | 806.9 | 30.3
303.18 K, 25530 kPa | 813.9 | 36.9
303.18 K, 35790 kPa | 826.5 | 44.3
303.18 K, 45770 kPa | 825.1 | 54.6
303.18 K, 55770 kPa | 825.9 | 66.3
348.13 K, 5270 kPa | 776.9 | 5.59
348.13 K, 5290 kPa | 777 | 5.6
348.13 K, 25490 kPa | 790.6 | 7.79
348.13 K, 56280 kPa | 807.7 | 12.3
348.13 K, 85860 kPa | 821.2 | 18.4
348.13 K, 115830 kPa | 832.6 | 26.9
348.13 K, 145930 kPa | 844.3 | 38.7
348.13 K, 175120 kPa | 843.2 | 55.6
398.15 K, 5160 kPa | 746.3 | 2.17
398.15 K, 5230 kPa | 746.4 | 2.17
398.15 K, 25310 kPa | 763.3 | 2.89
398.15 K, 56100 kPa | 783.5 | 4.24
398.15 K, 85890 kPa | 799.5 | 5.88
398.15 K, 115450 kPa | 812.6 | 7.93
398.15 K, 145820 kPa | 824.7 | 10.6
398.15 K, 176100 kPa | 835.4 | 13.8
448.25 K, 5580 kPa | 716.3 | 1.17
448.25 K, 5730 kPa | 716.5 | 1.18
448.25 K, 25470 kPa | 736.8 | 1.54
448.25 K, 55510 kPa | 759.9 | 2.17
448.25 K, 85620 kPa | 778.7 | 2.89
448.25 K, 115510 kPa | 793.3 | 3.76
448.25 K, 145580 kPa | 806.4 | 4.78
448.25 K, 176050 kPa | 818.2 | 5.99
